In patent US12570650B2, “6-substituted pyridazine compounds as SMARCA2 and/or SMARCA4 degraders” (Aurigene Oncology Limited, priority 2020, dated 2026):

Experiments:
Type in all cases: cell-based
SMARCA2 = biological target: T1, SMARCA2 (Homo sapiens, UniProt P51531); assay: SMARCA2 degradation in VCaP cells by Western blot; conditions: 16 hours
T1 construct: Determination of SMARCA2 and SMARCA4 Degradation in VCaP Cells by Western Blot; endogenous in cells; host or cells: VCaP (ATCC CRL-2876)
How it was run: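 VCaP cells were treated with compound for 16 hours, with DMSO at no more than 0.3% final. Lysates were immunoblotted for SMARCA2, using beta-tubulin as loading control. % degradation = 100 − (normalized band intensity treated/normalized band intensity DMSO)×100.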

RERF-LC-A1 cell line = assay: Anti proliferative activity, Cell Titer Glo assay, RERF-LC-A1; conditions: 144 h; RERF-LC-A1 cells, terminated day 6 without retreatment, CellTiter-Glo
Method: (§1) Example-P3: Determination of Anti Proliferative Activity of Compounds by Cell Titer Glo®(Promega) Assay
(§2) Cells were seeded into 96-well plates and the plate was incubated in 37 degrees incubator overnight. The next day, compounds were diluted 3-fold to cover 9-point concentration range in DMSO. Intermediate plate dilution was prepared in media followed with compound treatment in cells. Retreatment of cells with compound dilutions was performed on Day 4 and assay was terminated on day 8 for SK-MEL-5 cells using CellTiter-Glo and the plate was kept on orbital shaker for 20 minutes at RT. Assay was terminated on day 6 for RERF-LC-A1 without a compound retreatment. Luminescence signal was recorded on VICTOR^3 instrument. Percent inhibition of proliferation was calculated at each concentration and plotted against the compound concentration. EC50 value was calculated using GraphPad software.
Herein the group “++” refers to EC50 (RERF-LC-A1) values lower than 100 nM and “+” refers to EC50 (RERF-LC-A1) values greater than 100 nM.

SMARCA4 = biological target: T2, SMARCA4 (Homo sapiens, UniProt P51532); assay: SMARCA4 degradation in VCaP cells by Western blot; conditions: 16 hours
T2 construct: Determination of SMARCA2 and SMARCA4 Degradation in VCaP Cells by Western Blot; endogenous in cells; host or cells: VCaP (ATCC CRL-2876)
T2 sequence (P51532 whole entry): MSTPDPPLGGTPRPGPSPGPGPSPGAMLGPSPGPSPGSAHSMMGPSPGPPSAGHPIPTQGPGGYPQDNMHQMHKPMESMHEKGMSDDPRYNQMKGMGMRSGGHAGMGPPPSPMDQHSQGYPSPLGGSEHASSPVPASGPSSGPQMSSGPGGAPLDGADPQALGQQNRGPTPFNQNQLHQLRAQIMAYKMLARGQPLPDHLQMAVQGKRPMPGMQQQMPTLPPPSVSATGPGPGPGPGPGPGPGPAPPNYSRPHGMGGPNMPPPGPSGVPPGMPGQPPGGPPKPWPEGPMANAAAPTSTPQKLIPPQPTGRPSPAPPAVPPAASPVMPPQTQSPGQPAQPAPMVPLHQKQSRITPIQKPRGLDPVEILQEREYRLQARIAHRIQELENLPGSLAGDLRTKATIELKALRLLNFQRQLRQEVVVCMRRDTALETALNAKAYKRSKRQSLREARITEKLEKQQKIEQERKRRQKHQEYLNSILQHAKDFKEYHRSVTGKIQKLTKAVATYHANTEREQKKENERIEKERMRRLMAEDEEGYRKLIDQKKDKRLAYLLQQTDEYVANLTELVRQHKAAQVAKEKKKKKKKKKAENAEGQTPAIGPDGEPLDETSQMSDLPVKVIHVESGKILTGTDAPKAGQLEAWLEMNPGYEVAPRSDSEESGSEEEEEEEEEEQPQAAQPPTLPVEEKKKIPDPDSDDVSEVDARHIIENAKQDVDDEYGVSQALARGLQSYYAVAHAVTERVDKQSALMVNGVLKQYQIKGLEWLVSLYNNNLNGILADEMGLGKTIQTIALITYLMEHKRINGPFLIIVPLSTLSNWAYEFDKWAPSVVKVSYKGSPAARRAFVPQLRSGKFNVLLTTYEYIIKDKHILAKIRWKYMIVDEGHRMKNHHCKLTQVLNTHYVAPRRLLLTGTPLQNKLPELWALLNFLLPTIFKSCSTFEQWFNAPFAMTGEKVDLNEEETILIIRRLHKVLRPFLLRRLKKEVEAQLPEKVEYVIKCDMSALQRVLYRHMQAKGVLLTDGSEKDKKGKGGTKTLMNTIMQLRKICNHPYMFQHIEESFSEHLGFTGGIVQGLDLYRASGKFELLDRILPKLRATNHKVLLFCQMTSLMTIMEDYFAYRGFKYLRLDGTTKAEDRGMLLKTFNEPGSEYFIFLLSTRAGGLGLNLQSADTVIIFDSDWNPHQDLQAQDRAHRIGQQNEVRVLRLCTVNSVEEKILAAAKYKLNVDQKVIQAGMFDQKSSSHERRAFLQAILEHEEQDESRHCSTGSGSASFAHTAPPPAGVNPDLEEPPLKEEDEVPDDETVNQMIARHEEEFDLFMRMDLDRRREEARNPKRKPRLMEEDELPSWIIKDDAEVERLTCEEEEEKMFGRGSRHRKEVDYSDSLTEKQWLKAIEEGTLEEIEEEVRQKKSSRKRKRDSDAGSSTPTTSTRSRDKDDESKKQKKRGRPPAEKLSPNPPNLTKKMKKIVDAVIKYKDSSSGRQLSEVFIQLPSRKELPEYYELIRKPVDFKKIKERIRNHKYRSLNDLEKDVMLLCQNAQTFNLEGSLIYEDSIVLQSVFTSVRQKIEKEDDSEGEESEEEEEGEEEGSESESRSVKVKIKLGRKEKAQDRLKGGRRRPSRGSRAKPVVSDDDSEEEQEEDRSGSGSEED
How it was run: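 VCaP cells treated with compounds diluted from DMSO stocks, final DMSO ≤0.3%; equal protein analysed by SDS-PAGE Western blot. Degradation = 100 − (normalized SMARCA4 band in treated/DMSO sample)×100.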

SK-MEL-5 cells = assay: Anti proliferative activity, Cell Titer Glo assay, SK-MEL-5; conditions: Homo sapiens, SK-MEL-5, SK-MEL-5 cells, retreatment Day 4, terminated day 8, CellTiter-Glo
Method: as §1, §2

T1 sequence (P51531 whole entry): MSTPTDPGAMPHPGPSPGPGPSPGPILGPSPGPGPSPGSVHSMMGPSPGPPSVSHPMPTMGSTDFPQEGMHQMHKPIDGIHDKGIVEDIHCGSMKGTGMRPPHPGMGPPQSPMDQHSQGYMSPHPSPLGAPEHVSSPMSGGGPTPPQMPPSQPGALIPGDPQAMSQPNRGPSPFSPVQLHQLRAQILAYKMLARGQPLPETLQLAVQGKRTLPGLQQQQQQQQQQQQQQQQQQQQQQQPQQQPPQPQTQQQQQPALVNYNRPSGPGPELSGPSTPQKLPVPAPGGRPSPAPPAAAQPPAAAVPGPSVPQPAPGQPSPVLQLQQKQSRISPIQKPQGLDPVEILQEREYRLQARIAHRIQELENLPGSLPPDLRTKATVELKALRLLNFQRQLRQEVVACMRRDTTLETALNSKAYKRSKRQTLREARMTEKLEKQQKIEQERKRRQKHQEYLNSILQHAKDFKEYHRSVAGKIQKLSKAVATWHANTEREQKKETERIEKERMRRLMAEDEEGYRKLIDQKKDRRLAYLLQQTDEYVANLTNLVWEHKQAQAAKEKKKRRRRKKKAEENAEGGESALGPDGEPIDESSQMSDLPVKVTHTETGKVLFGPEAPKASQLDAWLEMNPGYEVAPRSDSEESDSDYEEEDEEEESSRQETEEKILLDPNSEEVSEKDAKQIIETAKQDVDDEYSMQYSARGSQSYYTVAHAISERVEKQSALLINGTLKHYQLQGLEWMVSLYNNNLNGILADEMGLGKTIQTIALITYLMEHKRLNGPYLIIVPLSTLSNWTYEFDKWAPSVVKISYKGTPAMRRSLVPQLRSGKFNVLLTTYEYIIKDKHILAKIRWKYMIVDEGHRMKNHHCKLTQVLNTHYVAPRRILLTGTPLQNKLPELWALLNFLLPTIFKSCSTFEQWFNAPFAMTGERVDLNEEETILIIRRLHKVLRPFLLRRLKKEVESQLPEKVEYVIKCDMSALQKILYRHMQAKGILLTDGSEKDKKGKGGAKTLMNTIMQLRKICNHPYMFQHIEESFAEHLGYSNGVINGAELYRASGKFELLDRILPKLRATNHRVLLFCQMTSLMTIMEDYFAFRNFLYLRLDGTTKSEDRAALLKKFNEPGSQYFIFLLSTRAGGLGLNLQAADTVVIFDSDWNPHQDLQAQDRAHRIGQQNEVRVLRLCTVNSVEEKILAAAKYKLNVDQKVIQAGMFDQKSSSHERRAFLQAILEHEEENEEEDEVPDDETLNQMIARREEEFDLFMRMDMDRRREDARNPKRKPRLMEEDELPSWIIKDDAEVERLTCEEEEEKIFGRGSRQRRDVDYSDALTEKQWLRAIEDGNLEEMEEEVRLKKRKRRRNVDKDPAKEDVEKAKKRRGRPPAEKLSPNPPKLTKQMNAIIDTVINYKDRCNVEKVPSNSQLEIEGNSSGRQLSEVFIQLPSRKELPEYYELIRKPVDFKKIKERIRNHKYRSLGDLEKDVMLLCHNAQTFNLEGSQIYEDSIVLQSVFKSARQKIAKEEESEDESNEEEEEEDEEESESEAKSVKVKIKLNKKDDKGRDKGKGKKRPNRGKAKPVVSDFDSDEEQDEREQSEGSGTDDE

`Cc1ncsc1-c1ccc([C@H](C)NC(=O)[C@@H]2C[C@@H](O)CN2C(=O)C(c2cc(OCCOc3ccc(-c4cnnc(-c5ccccc5O)c4)cc3)no2)C(C)C)cc1` (mixture of isomers) [Compound 42, (2S,4R)-4-hydroxy-1-(2-(3-(2-(4-(6-(2-hydroxyphenyl)pyridazin-4-yl)phenoxy)ethoxy)isoxazol-5-yl)-3-methylbutanoyl)-N-((S)-1-(4-(4-methylthiazol-5-yl)phenyl)ethyl)pyrrolidine-2-carboxamide] was tested, and the “Percent degradation (at 100 nM) SMARCA2” value (SMARCA2) was 57% and the EC50 (RERF-LC-A1 cell line) was > 100 nM.
With `Cc1ncsc1-c1ccc([C@H](C)NC(=O)[C@@H]2C[C@@H](O)CN2C(=O)[C@@H](NC(=O)CN2CCN(c3ccc(-c4cnnc(-c5ccccc5O)c4)cc3)CC2)C(C)(C)C)cc1` [Compound 2, (2S,4R)-4-hydroxy-1-((S)-2-(2-(4-(4-(6-(2-hydroxyphenyl)pyridazin-4-yl)phenyl)piperazin-1-yl)acetamido)-3,3-dimethylbutanoyl)-N-((S)-1-(4-(4-methylthiazol-5-yl)phenyl)ethyl)pyrrolidine-2-carboxamide] the “Percent degradation (at 100 nM) SMARCA2” value (SMARCA2) was 94%, the “Percent degradation (at 100 nM) SMARCA4” value (SMARCA4) was 0% and the EC50 (SK-MEL-5 cells) was < 250 nM. The EC50 (RERF-LC-A1 cell line) was < 100 nM.
For `Cc1ncsc1-c1ccc([C@H](C)NC(=O)[C@@H]2C[C@@H](O)CN2C(=O)[C@@H](NC(=O)CN2CCN(c3ccc(-c4cnnc(-c5ccccc5O)c4)cn3)CC2)C(C)(C)C)cc1` [Compound 5, (2S,4R)-4-hydroxy-1-((S)-2-(2-(4-(5-(6-(2-hydroxyphenyl)pyridazin-4-yl)pyridin-2-yl)piperazin-1-yl)acetamido)-3,3-dimethylbutanoyl)-N-((S)-1-(4-(4-methylthiazol-5-yl)phenyl)ethyl)pyrrolidine-2-carboxamide], the “Percent degradation (at 100 nM) SMARCA2” value (SMARCA2) was 94%, the “Percent degradation (at 100 nM) SMARCA4” value (SMARCA4) was 0% and the EC50 (SK-MEL-5 cells) was < 250 nM. The EC50 (RERF-LC-A1 cell line) was > 100 nM.
For `Cc1ncsc1-c1ccc([C@H](C)NC(=O)[C@@H]2C[C@@H](O)CN2C(=O)[C@@H](NC(=O)CC2CCN(c3ccc(-c4cnnc(-c5ccccc5O)c4)cc3)CC2)C(C)(C)C)cc1` [Compound 6, (2S,4R)-4-hydroxy-1-((S)-2-(2-(1-(4-(6-(2-hydroxyphenyl)pyridazin-4-yl)phenyl)piperidin-4-yl)acetamido)-3,3-dimethylbutanoyl)-N-((S)-1-(4-(4-methylthiazol-5-yl)phenyl)ethyl)pyrrolidine-2-carboxamide], the “Percent degradation (at 100 nM) SMARCA2” value (SMARCA2) was 97%, the “Percent degradation (at 100 nM) SMARCA4” value (SMARCA4) was 40% and the EC50 (SK-MEL-5 cells) was < 250 nM. For the same molecule, the EC50 (RERF-LC-A1 cell line) was < 100 nM.
For `Cc1ncsc1-c1ccc([C@H](C)NC(=O)[C@@H]2C[C@@H](O)CN2C(=O)[C@@H](NC(=O)CN2CC=C(c3ccc(-c4cnnc(-c5ccccc5O)c4)cc3)CC2)C(C)(C)C)cc1` [Compound 10, (2S,4R)-4-hydroxy-1-((S)-2-(2-(4-(4-(6-(2-hydroxyphenyl)pyridazin-4-yl)phenyl)-3,6-dihydropyridin-1(2H)-yl)acetamido)-3,3-dimethylbutanoyl)-N-((S)-1-(4-(4-methylthiazol-5-yl)phenyl)ethyl)pyrrolidine-2-carboxamide], the “Percent degradation (at 100 nM) SMARCA2” value (SMARCA2) was 83%, the “Percent degradation (at 100 nM) SMARCA4” value (SMARCA4) was 0% and the EC50 (SK-MEL-5 cells) was 250 to 500 nM. For the same molecule, the EC50 (RERF-LC-A1 cell line) was < 100 nM.
In the case of `Cc1ncsc1-c1ccc([C@H](C)NC(=O)[C@@H]2C[C@@H](O)CN2C(=O)[C@@H](NC(=O)CN2CCC(c3ccc(-c4cnnc(-c5ccccc5O)c4)cc3)CC2)C(C)(C)C)cc1` [Compound 11, (2S,4R)-4-hydroxy-1-((S)-2-(2-(4-(4-(6-(2-hydroxyphenyl)pyridazin-4-yl)phenyl)piperidin-1-yl)acetamido)-3,3-dimethylbutanoyl)-N-((S)-1-(4-(4-methylthiazol-5-yl)phenyl)ethyl)pyrrolidine-2-carboxamide], the “Percent degradation (at 100 nM) SMARCA2” value (SMARCA2) is reported as 91%, the “Percent degradation (at 100 nM) SMARCA4” value (SMARCA4) is reported as 0% and the EC50 (SK-MEL-5 cells) is reported as < 250 nM. For the same molecule, the EC50 (RERF-LC-A1 cell line) was < 100 nM.
For `Cc1ncsc1-c1ccc(CNC(=O)[C@@H]2C[C@@H](O)CN2C(=O)[C@@H](NC(=O)CN2CCC(c3ccc(-c4cnnc(-c5ccccc5O)c4)cc3)CC2)C(C)(C)C)cc1` [Compound 12, (2S,4R)-4-hydroxy-1-((S)-2-(2-(4-(4-(6-(2-hydroxyphenyl)pyridazin-4-yl)phenyl)piperidin-1-yl)acetamido)-3,3-dimethylbutanoyl)-N-(4-(4-methylthiazol-5-yl)benzyl)pyrrolidine-2-carboxamide], the “Percent degradation (at 100 nM) SMARCA2” value (SMARCA2) was 75%, the “Percent degradation (at 100 nM) SMARCA4” value (SMARCA4) was 0% and the EC50 (SK-MEL-5 cells) was > 500 nM. For the same molecule, the EC50 (RERF-LC-A1 cell line) was < 100 nM.
For `Cc1ncsc1-c1ccc([C@H](C)NC(=O)[C@@H]2C[C@@H](O)CN2C(=O)[C@@H](NC(=O)C(C)N2CCC(c3ccc(-c4cnnc(-c5ccccc5O)c4)cc3)CC2)C(C)(C)C)cc1` (stereo partly drawn) [Compound 14, (2S,4R)-4-hydroxy-1-((2S)-2-(2-(4-(4-(6-(2-hydroxyphenyl)pyridazin-4-yl)phenyl)piperidin-1-yl)propanamido)-3,3-dimethylbutanoyl)-N-((S)-1-(4-(4-methylthiazol-5-yl)phenyl)ethyl)pyrrolidine-2-carboxamide], the EC50 (SK-MEL-5 cells) was > 500 nM and the EC50 (RERF-LC-A1 cell line) was < 100 nM.
With `Cc1ncsc1-c1ccc([C@H](C)NC(=O)[C@@H]2C[C@@H](O)CN2C(=O)[C@@H](NC(=O)CN2CC3CCC(C2)N3c2ccc(-c3cnnc(-c4ccccc4O)c3)cc2)C(C)(C)C)cc1` [Compound 24, (2S,4R)-4-hydroxy-1-((2S)-2-(2-(8-(4-(6-(2-hydroxyphenyl)pyridazin-4-yl)phenyl)-3,8-diazabicyclo[3.2.1]octan-3-yl)acetamido)-3,3-dimethylbutanoyl)-N-((S)-1-(4-(4-methylthiazol-5-yl)phenyl)ethyl)pyrrolidine-2-carboxamide] the “Percent degradation (at 100 nM) SMARCA2” value (SMARCA2) was 96%, the “Percent degradation (at 100 nM) SMARCA4” value (SMARCA4) was 15% and the EC50 (SK-MEL-5 cells) was < 250 nM. The EC50 (RERF-LC-A1 cell line) was < 100 nM.
In the case of `Cc1ncsc1-c1ccc([C@H](C)NC(=O)[C@@H]2C[C@@H](O)CN2C(=O)[C@@H](NC(=O)CN2CC3(CC(c4ccc(-c5cnnc(-c6ccccc6O)c5)cc4)C3)C2)C(C)(C)C)cc1` [Compound 31, (2S,4R)-4-hydroxy-1-((S)-2-(2-(6-(4-(6-(2-hydroxyphenyl)pyridazin-4-yl)phenyl)-2-azaspiro[3.3]heptan-2-yl)acetamido)-3,3-dimethylbutanoyl)-N-((S)-1-(4-(4-methylthiazol-5-yl)phenyl)ethyl)pyrrolidine-2-carboxamide], the “Percent degradation (at 100 nM) SMARCA2” value (SMARCA2) is reported as 89%, the “Percent degradation (at 100 nM) SMARCA4” value (SMARCA4) is reported as 0% and the EC50 (SK-MEL-5 cells) is reported as 250 to 500 nM.
`Cc1ncsc1-c1ccc([C@H](C)NC(=O)[C@@H]2C[C@@H](O)CN2C(=O)[C@@H](NC(=O)CN2CCC(O)(c3ccc(-c4cnnc(-c5ccccc5O)c4)cc3)CC2)C(C)(C)C)cc1` [Compound 32, (2S,4R)-4-hydroxy-1-((S)-2-(2-(4-hydroxy-4-(4-(6-(2-hydroxyphenyl)pyridazin-4-yl)phenyl)piperidin-1-yl)acetamido)-3,3-dimethylbutanoyl)-N-((S)-1-(4-(4-methylthiazol-5-yl)phenyl)ethyl)pyrrolidine-2-carboxamide] was tested, and the “Percent degradation (at 100 nM) SMARCA2” value (SMARCA2) was 57%, the “Percent degradation (at 100 nM) SMARCA4” value (SMARCA4) was 0% and the EC50 (SK-MEL-5 cells) was > 500 nM.
In the case of `Cc1ncsc1-c1ccc([C@H](C)NC(=O)[C@@H]2C[C@@H](O)CN2C(=O)[C@@H](NC(=O)CCCCNc2ccc(-c3cnnc(-c4ccccc4O)c3)cc2)C(C)(C)C)cc1` [Compound 36, (2S,4R)-4-hydroxy-1-((S)-2-(5-((4-(6-(2-hydroxyphenyl)pyridazin-4-yl)phenyl)amino)pentanamido)-3,3-dimethylbutanoyl)-N-((S)-1-(4-(4-methylthiazol-5-yl)phenyl)ethyl)pyrrolidine-2-carboxamide], the “Percent degradation (at 100 nM) SMARCA2” value (SMARCA2) is reported as 90%, the “Percent degradation (at 100 nM) SMARCA4” value (SMARCA4) is reported as 19% and the EC50 (SK-MEL-5 cells) is reported as < 250 nM.
